Measured values reported in patent publication US10934274B2, “Quinoline derivatives as TAM RTK inhibitors” (Qurient Co., Ltd., priority 2015, dated 2021).

Assays:
Axl = molecular target: T1, Axl (Homo sapiens, UniProt P30530); assay: LanthaScreen Eu kinase binding assay, Axl; conditions: Tracer 236
T1 construct: purchased Life Technologies
T1 sequence (P30530 26-894): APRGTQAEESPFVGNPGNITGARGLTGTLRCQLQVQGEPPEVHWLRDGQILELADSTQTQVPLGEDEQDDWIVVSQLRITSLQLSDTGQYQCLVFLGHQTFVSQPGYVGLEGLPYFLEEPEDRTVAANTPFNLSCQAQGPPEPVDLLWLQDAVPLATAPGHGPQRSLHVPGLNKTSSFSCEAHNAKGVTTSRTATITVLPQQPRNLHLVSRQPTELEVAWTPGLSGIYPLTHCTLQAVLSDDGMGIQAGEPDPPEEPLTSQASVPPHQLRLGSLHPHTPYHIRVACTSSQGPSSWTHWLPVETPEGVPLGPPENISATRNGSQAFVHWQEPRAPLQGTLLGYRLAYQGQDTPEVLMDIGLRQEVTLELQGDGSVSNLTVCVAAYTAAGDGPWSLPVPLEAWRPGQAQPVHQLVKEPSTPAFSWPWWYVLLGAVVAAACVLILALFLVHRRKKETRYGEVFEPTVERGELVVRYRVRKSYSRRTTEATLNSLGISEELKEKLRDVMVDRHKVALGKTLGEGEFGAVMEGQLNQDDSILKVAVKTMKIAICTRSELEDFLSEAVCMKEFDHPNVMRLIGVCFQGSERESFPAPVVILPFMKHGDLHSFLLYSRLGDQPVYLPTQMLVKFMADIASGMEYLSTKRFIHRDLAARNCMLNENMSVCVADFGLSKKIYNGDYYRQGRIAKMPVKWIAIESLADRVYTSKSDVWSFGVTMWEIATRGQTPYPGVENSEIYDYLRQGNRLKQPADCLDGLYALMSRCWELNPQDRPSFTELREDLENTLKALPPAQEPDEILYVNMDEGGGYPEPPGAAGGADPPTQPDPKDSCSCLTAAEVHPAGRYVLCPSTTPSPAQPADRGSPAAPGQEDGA

[1] = tested on: Axl phosphorylation in transiently transfected HEK293T cells; assay: Cellular Axl phosphorylation assay; format: cell-based; conditions: Homo sapiens, HEK-293T; HEK293T cells transfected with Axl, 1 hour compound treatment, Phospho-Axl vs Total-Axl
How it was run: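 HEK293T cells transiently transfected with Axl (empty pcDNA_DEST_40 vector as minimum control) were treated with compound in DMSO for 1 h, then lysed. Total and phospho-Axl in lysates were measured by Mesoscale electrochemiluminescence immunoassay. IC50 was taken relative to the DMSO vehicle and empty-vector controls.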

HCC827/ER cells = assay: WST-1 cell viability assay in erlotinib-resistant cells; conditions: compound combined with Erlotinib at constant 1:1 ratio, 3 days, FBS 1%
Description: The killed cells were discarded and the remaining cells were cultured in a drug-free medium up to 80% confluence. Subsequently, cells were continuously exposed to increasing drug doses of up to 10 μM over a period of 8 months.
HCC827/ER cells were seeded in a 96-well plate with their respective media containing 10% FBS at 5000 cells/well. After seeding, the HCC827/ER cells were incubated for approximately 24 hours. […] The viability of the HCC827/ER cells was determined by adding WST-1 reagent according to Manufacturer's instructions (DoGenbio co., Ltd) and incubating for four hours. The plates were then read using an absorbance of 440 nm on Tecan Microplate reader (Infinite M200 pro, TECAN). The HCC827/ER cells' viability were calculated relative to vehicle (DMSO) control wells.

| SMILES | Kd (Axl) | IC50 [1] | Combination effect of compound and erlotinib on inhibition activity in Erlotinib-resistant cell-line (HCC827/ER cells) |
| --- | --- | --- | --- |
| CCOc1cn(-c2c(C)cc(OC)cc2C)nc1C(=O)Nc1ccc(Oc2ccnc3cc(OC)c(OC)cc23)cn1 [Compound 92] | < 100 nM | < 100 nM | – |
| CCOc1cn(-c2ccc(F)cc2)nc1C(=O)Nc1ccc(Oc2ccnc3cc(OC)c(OC)cc23)cn1 [Compound 89] | < 100 nM | < 100 nM | – |
| CCOc1cn(-c2ccc(F)cc2C)nc1C(=O)Nc1ccc(Oc2ccnc3cc(OC)c(OC)cc23)c(Cl)c1 [Compound 82] | < 100 nM | < 100 nM | – |
| CCOc1cn(C2CCOC2)nc1C(=O)Nc1ccc(Oc2ccnc3cc(OC)c(OC)cc23)cn1 (centres unmarked) [Compound 76] | < 100 nM | < 100 nM | – |
| CCOc1cn(CCC#N)nc1C(=O)Nc1ccc(Oc2ccnc3cc(OC)c(OC)cc23)cn1 [Compound 80] | < 100 nM | < 100 nM | – |
| CCOc1cn(C(C)CC#N)nc1C(=O)Nc1ccc(Oc2ccnc3cc(OC)c(OC)cc23)cn1 (centres unmarked) [Compound 81] | < 100 nM | < 100 nM | – |
| CCOc1cn(-c2ccccn2)nc1C(=O)Nc1ccc(Oc2ccnc3cc(OC)c(OC)cc23)cn1 [Compound 4] | < 100 nM | < 100 nM | – |
| CCOc1cn(-c2ncc(N)cn2)nc1C(=O)Nc1ccc(Oc2ccnc3cc(OC)c(OC)cc23)cn1 [Compound 93] | < 100 nM | < 100 nM | – |
| CCOc1cn(-c2ccc(Cl)cc2C)nc1C(=O)Nc1ccc(Oc2ccnc3cc(OC)c(OC)cc23)cn1 [Compound 87] | < 100 nM | < 100 nM | – |
| CCOc1cn(-c2cnccc2C)nc1C(=O)Nc1ccc(Oc2ccnc3cc(OC)c(OC)cc23)cn1 [Compound 79] | < 100 nM | < 100 nM | synergistic effect |
| CCOc1cn(-c2cccnc2)nc1C(=O)Nc1ccc(Oc2ccnc3cc(OC)c(OC)cc23)cc1F [Compound 85] | < 100 nM | < 100 nM | – |
| CCOc1cn(-c2cccnn2)nc1C(=O)Nc1ccc(Oc2ccnc3cc(OC)c(OC)cc23)cn1 [Compound 5] | < 100 nM | < 100 nM | – |
| CCOc1cn(CCOC(F)F)nc1C(=O)Nc1ccc(Oc2ccnc3cc(OC)c(OC)cc23)cn1 [Compound 86] | < 100 nM | < 100 nM | – |
| CCOc1cn(C2CCCC2)nc1C(=O)Nc1ccc(Oc2ccnc3cc(OC)c(OC)cc23)cn1 [Compound 3] | < 100 nM | < 100 nM | – |
